Reference: PMC10579241, “Impact of trifluoromethyl and sulfonyl groups on the biological activity of novel aryl-urea derivatives: synthesis, in-vitro, in-silico and SAR studies” (Scientific Reports, 2023)
Marks after values point to notes of the source that are not given here.

Tests used:
Bacillus mycoides = experiment: microbe, parasite or virus in culture; type: cell-based; details: Bacillus mycoides, read-out: Inhibition zones diameter
Escherichia coli = experiment: Agar well diffusion, E. coli; type: cell-based; details: Escherichia coli, read-out: Inhibition zones diameter; for zone of inhibition at 10 µg/disc: reference antibiotic 10 mcg
Candida albicans = experiment: Agar well diffusion, C. albicans; type: cell-based; details: Candida albicans, read-out: Inhibition zones diameter; for zone of inhibition at 10 µg/disc: reference antibiotic 10 mcg
[1] = system: pancreatic cancer cell line (PACA2); experiment: cells; type: cell-based; details: Homo sapiens, PaCa-2, 48 h; for mortality at 100 µg/mL: 100 μg/mL
colon cancer (HCT116) = experiment: cells; type: cell-based; details: Homo sapiens, HCT-116, 48 h, 100 μg/mL
[2] = system: normal skin fibroblast cell line (BJ1); experiment: cells; type: cell-based; details: Homo sapiens, Skin fibroblast, MTT, 48 h
PACA2 [3] = experiment: DNA fragmentation assay, PACA2; type: cell-based, human
PALB2 = experiment: qRT-PCR, PALB2 in PACA2 cells; type: cell-based, human; details: versus negative untreated sample
PACA2 [4] = experiment: DNA damage, comet assay, PACA2; type: cell-based, human
prostate cancer (PC3) = experiment: cells; type: cell-based; details: Homo sapiens, 48 h, 100 μg/mL
[5] = system: human lung carcinoma (A549); experiment: cells; type: cell-based; details: A549, 48 h, 100 μg/mL
[6] = system: osteosarcoma cell line (HOS); experiment: cells; type: cell-based; details: Homo sapiens, 48 h; for mortality at 100 µg/mL: 100 μg/mL
CDKN2A = experiment: qRT-PCR, CDKN2A in PACA2 cells; type: cell-based, human; details: versus negative untreated sample
in vitro = type: cell-based; details: human, BJ1 normal skin fibroblast cells, 100 μg/mL
[7] = system: hepatocellular carcinoma cell line (HePG2); experiment: cells; type: cell-based; details: Homo sapiens, 48 h
skin cancer (A431) = experiment: cells; type: cell-based; details: Homo sapiens, A-431, 100 μg/mL, 48 h

Work on `CC[C@H]1OC(=O)[C@H](C)[C@@H](O[C@H]2C[C@@](C)(OC)[C@@H](O)[C@H](C)O2)[C@H](C)[C@@H](O[C@@H]2O[C@H](C)C[C@H](N(C)C)[C@H]2O)[C@](C)(O)C[C@@H](C)C(=O)[C@H](C)[C@@H](O)[C@]1(C)O` [Erythromycin, reference compound] yielded a zone of inhibition at 15 µg/disc (Bacillus mycoides) of 17 ± 0.15 mm, a zone of inhibition at 15 µg/disc (Escherichia coli; E. coli, reference antibiotic 15 mcg) of 29 ± 2.13 mm and a zone of inhibition at 15 µg/disc (Candida albicans; C. albicans, reference antibiotic 15 mcg) of 25 mm.
Work on `Cc1ccc(NC(=O)Nc2cc(C(F)(F)F)cc(C(F)(F)F)c2)cc1` [Compound 15, 1-[3,5-Bis(trifluoromethyl)phenyl]-3-(p-tolyl)urea] yielded a mortality at 100 µg/mL [1] of over 75%, an IC50 ([1]; MTT) of 82.5 ± 0.21 µM and a mortality at 100 µg/mL (colon cancer (HCT116)) of 49.6 ± 1.23%. The IC50 [2] was 94.4 ± 0.71 µM, the zone of inhibition at 10000 µg/mL (Bacillus mycoides) was 23 ± 0.35 mm and the “Change (DNA fragmentation versus untreated cells)” value (PACA2 [3]) was 20.20. The “DNA fragmentation % M ± SEM” value (PACA2 [3]; IC50 concentration, 24 h) was 32.3 ± 0.74^ab %, the Inhibition (PACA2 [3]; doxorubicin = 0.0) was 12.22 and the “PALB2 gene expression level” value (PALB2) was “significantly reduced”. The “DNA damaged cells % (mean ± SEM)” value (PACA2 [4]) was 21.00 ± 1.29^a %, the “Class 0 (no tail), number of cells” value (PACA2 [4]; of 400 cells analyzed) was 316 and the “Class 1 (tail length < diameter of nucleus), number of cells” value (PACA2 [4]; of 400 cells analyzed) was 31. For the same compound, the “Class 2 (tail length between 1 and 2 × the diameter of nucleus), number of cells” value (PACA2 [4]; of 400 cells analyzed) was 25, the “Class 3 (tail length > 2 × the diameter of nucleus), number of cells” value (PACA2 [4]; of 400 cells analyzed) was 28 and the “No. of cells, Comets” value (PACA2 [4]; of 400 cells analyzed) was 84. For the same compound, the mortality at 100 µg/mL (prostate cancer (PC3)) was over 75%, the mortality at 100 µg/mL [5] was over 50% and the zone of inhibition at 10000 µg/mL (Escherichia coli) was 24 ± 0.68 mm. For the same compound, the IC50 ([6]; MTT) was 37.3 ± 0.37 µM, the “CDKN2A gene expression level” value (CDKN2A) was “significantly reduced” and the zone of inhibition at 10000 µg/mL (Candida albicans) was 24 ± 1.22 mm.
`CNC(C)C1CCC(N)C(OC2C(N)CC(N)C(OC3OCC(C)(O)C(NC)C3O)C2O)O1` (stereo not drawn) [Gentamicin, reference compound] showed a zone of inhibition at 10 µg/disc (Bacillus mycoides) of 11 ± 0.43 mm, a zone of inhibition at 10 µg/disc (Escherichia coli; E. coli) of 12 ± 0.18 mm and a zone of inhibition at 10 µg/disc (Candida albicans; C. albicans) of 12 ± 0.89 mm.
For `Cc1ccc(NC(=O)Nc2ccc(C(F)(F)F)cc2)cc1` [Compound 13, 1-(p-Tolyl)-3-[4-(trifluoromethyl)phenyl]urea], the mortality at 100 µg/mL [1] was 35.8 ± 0.91%, the mortality at 100 µg/mL (colon cancer (HCT116)) was 11.5 ± 1.19% and the mortality at 48 h, 100 µg/mL (in vitro) was 84.2 ± 1.61%. It also gave a zone of inhibition at 10000 µg/mL (Bacillus mycoides) of 16 ± 0.41 mm, a mortality at 100 µg/mL ([7]; 100 μg/mL) of 100% and an IC50 ([7]; MTT) of 121.7 ± 0.85 µM. It also gave a mortality at 100 µg/mL (prostate cancer (PC3)) of 47.2 ± 0.63%, a mortality at 100 µg/mL [5] of 3.5 ± 0.55% and a zone of inhibition at 10000 µg/mL (Escherichia coli) of 18 ± 1.84 mm. The mortality at 100 µg/mL [6] was about 74.3%, the zone of inhibition at 10000 µg/mL (Candida albicans) was 18 ± 0.66 mm and the mortality at 100 µg/mL (skin cancer (A431)) was 1.3 ± 0.78%.
In the case of `COc1cc(NC(=O)NS(=O)(=O)c2ccc(C)cc2)cc(OC)c1` [Compound 10, N-[(3,5-Dimethoxyphenyl)carbamoyl]-4-methylbenzenesulfonamide], the mortality at 100 µg/mL [1] is reported as over 50%, the mortality at 100 µg/mL (colon cancer (HCT116)) is reported as 37.5 ± 1.12% and the zone of inhibition at 10000 µg/mL (Bacillus mycoides) is reported as 24 ± 0.87 mm. It also gave a mortality at 100 µg/mL (prostate cancer (PC3)) of 35.2 ± 0.89%, a mortality at 100 µg/mL [5] of 34.2 ± 1.2% and a zone of inhibition at 10000 µg/mL (Escherichia coli) of 22 ± 0.39 mm. The mortality at 100 µg/mL [6] was 12.3 ± 1.21%, the zone of inhibition at 10000 µg/mL (Candida albicans) was 21 ± 0.32 mm and the mortality at 100 µg/mL (skin cancer (A431)) was 23.5 ± 0.97%.
`NC[C@H]1O[C@H](O[C@H]2[C@H](O)[C@@H](O[C@H]3O[C@H](CO)[C@@H](O)[C@H](N)[C@H]3O)[C@H](N)C[C@@H]2N)[C@H](N)C[C@@H]1O` [Tobramycin, reference compound] showed a zone of inhibition at 10 µg/disc (Bacillus mycoides) of 10 ± 0.31 mm, a zone of inhibition at 10 µg/disc (Escherichia coli; E. coli) of 13 ± 0.22 mm and a zone of inhibition at 10 µg/disc (Candida albicans; C. albicans) of 12 ± 0.61 mm.
